In patent US20020035061A1, “COMPOSITIONS AND METHODS FOR TREATING INFECTIONS USING CATIONIC PEPTIDES ALONE OR IN COMBINATION WITH ANTIBIOTICS” (priority 1996, published 2002):

Tested on: bacterial isolates
Assay: microbe, parasite or virus in culture
Type: cell-based

Sequence: KWKSFIKKLTSAAKKVVTTAKPLISS [MBI 26]
- Peptide MIC Alone (P. aeruginosa PA4, Mupirocin section): >128 µg/mL
- Ceftriaxone MIC + Peptide (P. aeruginosa PA008): 8 µg/mL
- Peptide MIC + Ceftriaxone (P. aeruginosa PA008): 0.125 µg/mL
- Ceftriaxone MIC + Peptide (P. aeruginosa PA024): 4 µg/mL
- Peptide MIC + Ceftriaxone (P. aeruginosa PA024): 32 µg/mL
- Gentamicin MIC + Peptide (P. aeruginosa PA041): 1 µg/mL
- Peptide MIC + Gentamicin (P. aeruginosa PA041): 32 µg/mL
- Ciprofloxacin MIC + Peptide (P. aeruginosa PA41): 1 µg/mL
- Peptide MIC + Ciprofloxacin (P. aeruginosa PA41): 32 µg/mL
- Ciprofloxacin MIC + Peptide (P. aeruginosa PA77): 0.125 µg/mL
- Peptide MIC + Ciprofloxacin (P. aeruginosa PA77): 64 µg/mL
- Peptide MIC + Piperacillin (S. aureus 19 MRSA): 1 µg/mL
- Piperacillin MIC + Peptide (S. aureus 19 MRSA): 16 µg/mL
- Peptide MIC Alone (S. aureus 19 MRSA, Piperacillin section): 32 µg/mL
- Ciprofloxacin MIC + Peptide (S. aureus SA11): 32 µg/mL
- Peptide MIC + Ciprofloxacin (S. aureus SA11): 0.125 µg/mL
- Ceftriaxone MIC + Peptide (S. aureus SA025 MRSA): 0.125 µg/mL
- Peptide MIC + Ceftriaxone (S. aureus SA025 MRSA): 0.5 µg/mL
- FIC (S. aureus SA044, combination with Ciprofloxacin): 0.63
- FIC (S. aureus SA7609, combination with Clindamycin): 0.25
- FIC (S. aureus SA7609, combination with Methicillin): 0.56
- FIC (S. aureus SA7610, combination with Clindamycin): 0.63
- FIC (S. aureus SA7610, combination with Methicillin): 0.31
- FIC (S. aureus SA7795, combination with Ampicillin): 0.52
- FIC (S. aureus SA7795, combination with Clindamycin): 0.53
- FIC (S. aureus SA7796, combination with Ampicillin): 1.00
- FIC (S. aureus SA7796, combination with Clindamycin): 0.51
- FIC (S. aureus SA7817, combination with Ampicillin): 0.50
- FIC (S. aureus SA7818, combination with Ampicillin): 1.00
- FIC (S. aureus SA7818, combination with Erythromycin): 0.15
- FIC (S. aureus SA7821, combination with Erythromycin): 0.50
- FIC (S. aureus SA7822, combination with Ampicillin): 0.25
- FIC (S. aureus SA7823, combination with Ampicillin): 0.25
- FIC (S. aureus SA7824, combination with Ampicillin): 1.00
- FIC (S. aureus SA7825, combination with Ampicillin): 1.00
- FIC (S. aureus SA7825, combination with Erythromycin): 1.00
- FIC (S. aureus SA7834, combination with Ampicillin): 0.53
- FIC (S. aureus SA7834, combination with Clindamycin): 0.56
- FIC (S. aureus SA7835, combination with Ampicillin): 0.53
- FIC (S. aureus SA7836, combination with Ampicillin): 0.75
- FIC (S. aureus SA7837, combination with Ampicillin): 1.00
- FIC (S. aureus SAATCC25293, combination with Methicillin): 0.50
- FIC (S. aureus SAATCC29213, combination with Methicillin): 0.31
- FIC (S. aureus SAW1133, combination with Methicillin): 0.75
- Peptide MIC + Piperacillin (S. aureus SB3MRSA): 16 µg/mL
- Piperacillin MIC + Peptide (S. aureus SB3MRSA): 64 µg/mL
- Peptide MIC Alone (S. aureus SB3MRSA, Piperacillin section): >128 µg/mL
- Mupirocin MIC + Peptide (S. aureus SBSA4): 30 µg/mL
- Peptide MIC + Mupirocin (S. aureus SBSA4): 8 µg/mL
- Peptide MIC Alone (S. aureus SBSA4, Mupirocin section): 32 µg/mL
- Ceftriaxone MIC + Peptide (S. epidermidis SE007): 2 µg/mL
- Peptide MIC + Ceftriaxone (S. epidermidis SE007): 0.5 µg/mL
- Ceftriaxone MIC + Peptide (S. epidermidis SE012): 16 µg/mL
- Peptide MIC + Ceftriaxone (S. epidermidis SE012): 1 µg/mL
- Peptide MIC + Tobramycin (S. epidermidis SE067): 0.25 µg/mL
- Peptide MIC Alone (S. epidermidis SE067): 2 µg/mL
- Tobramycin MIC + Peptide (S. epidermidis SE067): 64 µg/mL
- Peptide MIC + Tobramycin (S. epidermidis SE068): 0.5 µg/mL
- Peptide MIC Alone (S. epidermidis SE068): 2 µg/mL
- Tobramycin MIC + Peptide (S. epidermidis SE068): 4 µg/mL
- FIC (S. epidermidis SE8406, combination with Clindamycin): 0.50
- FIC (S. epidermidis SE8416, combination with Clindamycin): 0.56
- FIC (S. epidermidis SE8505, combination with Ampicillin): 1.00
- FIC (S. epidermidis SE8565, combination with Ampicillin): 1.00
- FIC (S. haemolyticus SH8459, combination with Ampicillin): 0.52
- FIC (S. haemolyticus SH8472, combination with Ampicillin): 0.56
- FIC (S. haemolyticus SH8563, combination with Ampicillin): 0.75
- FIC (S. haemolyticus SH8564, combination with Ampicillin): 0.62
- FIC (S. haemolyticus SH8575, combination with Ampicillin): 0.75
- FIC (S. haemolyticus SH8576, combination with Ampicillin): 0.62
- FIC (S. haemolyticus SH8578, combination with Ampicillin): 1.00
- Peptide MIC + Piperacillin (S. maltophilia 3): 4 µg/mL
- Piperacillin MIC + Peptide (S. maltophilia 3): 32 µg/mL
- Peptide MIC Alone (S. maltophilia 3, Piperacillin section): 16 µg/mL
- Ciprofloxacin MIC + Peptide (S. maltophilia 34): 0.25 µg/mL
- Peptide MIC + Ciprofloxacin (S. maltophilia 34): 8 µg/mL
- Peptide MIC + Piperacillin (S. maltophilia 34): 16 µg/mL
- Piperacillin MIC + Peptide (S. maltophilia 34): 4 µg/mL
- Peptide MIC Alone (S. maltophilia 34, Piperacillin section): >32 µg/mL
- Ciprofloxacin MIC + Peptide (S. maltophilia 35): 0.5 µg/mL
- Peptide MIC + Ciprofloxacin (S. maltophilia 35): 16 µg/mL
- Peptide MIC + Piperacillin (S. maltophilia 35): 16 µg/mL
- Piperacillin MIC + Peptide (S. maltophilia 35): 4 µg/mL
- Peptide MIC Alone (S. maltophilia 35, Piperacillin section): >32 µg/mL
- Gentamicin MIC + Peptide (S. maltophilia SMA016): 32 µg/mL
- Peptide MIC + Gentamicin (S. maltophilia SMA016): 32 µg/mL
- Gentamicin MIC + Peptide (S. maltophilia SMA017): 16 µg/mL
- Peptide MIC + Gentamicin (S. maltophilia SMA017): 2 µg/mL
- Ceftriaxone MIC + Peptide (S. maltophilia SMA019): 64 µg/mL
- Peptide MIC + Ceftriaxone (S. maltophilia SMA019): 1 µg/mL
- Ceftriaxone MIC + Peptide (S. maltophilia SMA020): 32 µg/mL
- Peptide MIC + Ceftriaxone (S. maltophilia SMA020): 1 µg/mL
- Amikacin MIC + Peptide (S. maltophilia SMA021): 8 µg/mL
- Peptide MIC + Amikacin (S. maltophilia SMA021): 2 µg/mL
- Peptide MIC + Tobramycin (S. maltophilia SMA029): 4 µg/mL
- Peptide MIC Alone (S. maltophilia SMA029): >128 µg/mL
- Tobramycin MIC + Peptide (S. maltophilia SMA029): 4 µg/mL
- Peptide MIC + Tobramycin (S. maltophilia SMA030): 4 µg/mL
- Peptide MIC Alone (S. maltophilia SMA030): >128 µg/mL
- Tobramycin MIC + Peptide (S. maltophilia SMA030): 4 µg/mL
- Amikacin MIC + Peptide (S. maltophilia SMA037): 16 µg/mL
- Peptide MIC + Amikacin (S. maltophilia SMA037): 16 µg/mL
- Peptide MIC + Piperacillin (S. marcescens 1): 0.5 µg/mL
- Piperacillin MIC + Peptide (S. marcescens 1): 32 µg/mL
- Peptide MIC Alone (S. marcescens 1, Piperacillin section): >128 µg/mL
- FIC (peptide + Amikacin, A. baumannii ABI001): 0.50
- FIC (peptide + Amikacin, A. baumannii ABI003): 0.38
- FIC (peptide + Amikacin, S. maltophilia SMA021): 0.13
- FIC (peptide + Amikacin, S. maltophilia SMA037): 0.19
- FIC (peptide + Ceftriaxone, A. baumannii ABI002): 0.50
- FIC (peptide + Ceftriaxone, A. baumannii ABI005): 0.56
- FIC (peptide + Ceftriaxone, B. cepacia BC003): 0.50
- FIC (peptide + Ceftriaxone, E. cloacae ECL014): 0.50
- FIC (peptide + Ceftriaxone, E. cloacae ECL015): 0.19
- FIC (peptide + Ceftriaxone, K. pneumoniae KP003): 0.56
- FIC (peptide + Ceftriaxone, P. aeruginosa PA008): 0.13
- FIC (peptide + Ceftriaxone, P. aeruginosa PA024): 0.50
- FIC (peptide + Ceftriaxone, S. aureus SA025 MRSA): 0.52
- FIC (peptide + Ceftriaxone, S. epidermidis SE007): 0.27
- FIC (peptide + Ceftriaxone, S. epidermidis SE012): 0.27
- FIC (peptide + Ceftriaxone, S. maltophilia SMA019): 0.50
- FIC (peptide + Ceftriaxone, S. maltophilia SMA020): 0.38
- FIC (peptide + Ciprofloxacin, A. calcoaceticus 1): 0.51
- FIC (peptide + Ciprofloxacin, A. calcoaceticus 6): 0.50
- FIC (peptide + Ciprofloxacin, E. cloacae 13): 0.27
- FIC (peptide + Ciprofloxacin, E. cloacae 15): 0.38
- FIC (peptide + Ciprofloxacin, E. cloacae 16): 0.38
- FIC (peptide + Ciprofloxacin, P. aeruginosa 23): 0.53
- FIC (peptide + Ciprofloxacin, P. aeruginosa 24): 0.53
- FIC (peptide + Ciprofloxacin, P. aeruginosa PA41): 0.50
- FIC (peptide + Ciprofloxacin, P. aeruginosa PA77): 0.56
- FIC (peptide + Ciprofloxacin, S. aureus SA11): 0.50
- FIC (peptide + Ciprofloxacin, S. maltophilia 34): 0.25
- FIC (peptide + Ciprofloxacin, S. maltophilia 35): 0.50
- FIC (peptide + Gentamicin, A. baumannii ABI001): 0.50
- FIC (peptide + Gentamicin, A. baumannii ABI002): 0.53
- FIC (peptide + Gentamicin, P. aeruginosa PA041): 0.63
- FIC (peptide + Gentamicin, S. maltophilia SMA016): 0.25
- FIC (peptide + Gentamicin, S. maltophilia SMA017): 0.38
- FIC (peptide + Mupirocin, E. coli ECO5): 0.43
- FIC (peptide + Mupirocin, E. coli SBECO2): 0.16
- FIC (peptide + Mupirocin, P. aeruginosa PA2): 0.51
- FIC (peptide + Mupirocin, P. aeruginosa PA4): 0.23
- FIC (peptide + Mupirocin, S. aureus SBSA4): 0.28
- FIC (peptide + Piperacillin, A. calcoaceticus 7): 0.25
- FIC (peptide + Piperacillin, A. calcoaceticus 8): 0.19
- FIC (peptide + Piperacillin, E. cloacae 13): 0.16
- FIC (peptide + Piperacillin, H. influenzae 1): 0.53
- FIC (peptide + Piperacillin, H. influenzae 2): 0.51
- FIC (peptide + Piperacillin, P. aeruginosa 7): 0.25
- FIC (peptide + Piperacillin, P. aeruginosa 23): 0.27
- FIC (peptide + Piperacillin, P. aeruginosa 28): 0.14
- FIC (peptide + Piperacillin, P. aeruginosa 41): 0.53
- FIC (peptide + Piperacillin, S. aureus 19 MRSA): 0.16
- FIC (peptide + Piperacillin, S. aureus SB3MRSA): 0.31
- FIC (peptide + Piperacillin, S. maltophilia 3): 0.50
- FIC (peptide + Piperacillin, S. maltophilia 34): 0.25
- FIC (peptide + Piperacillin, S. maltophilia 35): 0.26
- FIC (peptide + Piperacillin, S. marcescens 1): 0.50
- FIC (peptide + Tobramycin, S. epidermidis SE067): 0.38
- FIC (peptide + Tobramycin, S. epidermidis SE068): 0.27
- FIC (peptide + Tobramycin, S. maltophilia SMA029): 0.05
- FIC (peptide + Tobramycin, S. maltophilia SMA030): 0.05
- FIC (peptide + Vancomycin, E. faecalis EFS005): 0.31
- FIC (peptide + Vancomycin, E. faecalis EFS012): 0.07
- FIC (peptide + Vancomycin, E. faecalis EFS013): 0.07
- FIC (peptide + Vancomycin, E. faecium EFM010): 0.31
- FIC (peptide + Vancomycin, E. faecium EFM011): 0.31
